The source of these data is US20220110847A1, “USE OF COOLING MATERIALS FOR THE REDUCTION OR INHIBITION OF SALTINESS IN ORALLY ADMINISTERED, IMBIBED OR INGESTED CONSUMER PRODUCTS” (TAKASAGO INTERNATIONAL CORPORATION, priority 2019, published 2022).

This test can be described thus: Saltiness rating of toothpaste samples by an expert panel. The settings on record: for perceived salty taste compared with both the Control and the other tested cooling materials: cooling material added to commercial toothpaste with approximately 50% sodium bicarbonate, expert panel; for Average RATING (saltiness): saltiness scale of 1 (less salty) to 7 (most salty), 7 evaluators, cooling material at 0.2 % (table) in commercial toothpaste with approximately 50% by weight sodium bicarbonate, Control 6.43. The class given is in vivo. As for the experimental part: A sample of a commercially available toothpaste containing approximately 50% by weight of sodium bicarbonate was used as a Control. […] All of the toothpaste samples, including the Control, were evaluated by an expert panel comprised of 4 Flavorist(s), 2 Flavor Lab Managers, and 1 Flavor Lab Technician. Each sample was assigned a number by each evaluator to indicate saltiness, using a saltiness scale of 1(less salty) to 7(most salty).

In the case of `CC1CCC(C(C)C)C(OCCO)C1` (centres unmarked) [hydroxyethyl-menthyl ether], the “perceived salty taste compared with both the Control and the other tested cooling materials” value was “less salty taste”; the “Average RATING (saltiness)” value is 5.57.

As for `CCOC(=O)CNC(=O)C1CC(C)CCC1C(C)C` (centres unmarked) [N-[(ethoxycarbonyl)methyl)-p-menthane-3-carboxamide, reference compound], the “Average RATING (saltiness)” value worked out at 6.43.

On to `CCNC(=O)C1CC(C)CCC1C(C)C` (centres unmarked) [N-ethyl-5-methyl-2-propan-2-ylcyclohexane-1-carboxamide, reference compound], for which the “Average RATING (saltiness)” value turned out to be 6.57.

Turning to `CC(C)[C@@H]1CC[C@@H](C)C[C@H]1OCC(O)CO` (stereo partly drawn) [3-L-menthoxypropan-1,2-diol], the “perceived salty taste compared with both the Control and the other tested cooling materials” value is given as “less salty taste”; the “Average RATING (saltiness)” value was found to be 3.00.

Consider `CC(=O)C1CCC(C)CC1O` (centres unmarked) [1-(2-hydroxy-4-methylcyclohexyl)-ethanone], for which the “perceived salty taste compared with both the Control and the other tested cooling materials” value is “less salty taste”; the “Average RATING (saltiness)” value stood at 2.43.

For the molecule `C=C(C)[C@@H]1CC[C@@H](C)C[C@H]1O` [1-isopulegol, reference compound], the “Average RATING (saltiness)” value was determined as 6.29.

On to `CC1CCC(C(C)(C)O)C(O)C1` (centres unmarked) [p-menthane-3,8-diol], for which the “perceived salty taste compared with both the Control and the other tested cooling materials” value is “less salty taste”; the “Average RATING (saltiness)” value is reported as 5.86.

For the molecule `CNC(=O)C(C)(C(C)C)C(C)C` [2-isopropyl-N,2,3-trimethylbutyramide, reference compound], the “Average RATING (saltiness)” value is 6.

Consider `CC(O)CC(=O)O[C@@H]1C[C@H](C)CC[C@H]1C(C)C` (stereo partly drawn) [L-menthyl-3-hydroxybutanoate], for which the “perceived salty taste compared with both the Control and the other tested cooling materials” value is recorded as “less salty taste”; the “Average RATING (saltiness)” value was determined as 3.86.

Turning to `CC1CCC(C(C)C)C(OC(=O)C(C)O)C1` (centres unmarked) [Menthyl Lactate, reference compound], the “Average RATING (saltiness)” value was found to be 6.43.

As for `COc1ccc(NC(=O)C2CC(C)CCC2C(C)C)cc1` (centres unmarked) [N-(4-methoxyphenyl)-p-menthanecarboxamide], the “perceived salty taste compared with both the Control and the other tested cooling materials” value was “less salty taste”; the “Average RATING (saltiness)” value is 5.57.
